In BindingDB's records for doi:10.1016/j.bmcl.2003.08.040 (Toa Eiyo, 2003):

Biological target: Chymotrypsinogen A (Bos taurus) (UniProt P00766)
Experiment: In vitro inhibitory activity against bovin chymotrypsin

IC50 [µM]	Structure (SMILES)
> 10	COC(=O)c1ccc(NS(=O)(=O)c2sc3ccc(Cl)cc3c2C)c(S(C)(=O)=O)c1 [4-(5-Chloro-3-methyl-benzo[b]thiophene-2-sulfonylamino)-3-methanesulfonyl-benzoic acid methyl ester]
> 10	CC(=O)c1ccc(NS(=O)(=O)c2sc3ccc(F)cc3c2C)c(S(C)(=O)=O)c1 [5-Fluoro-3-methyl-benzo[b]thiophene-2-sulfonic acid (4-acetyl-2-methanesulfonyl-phenyl)-amide]
> 10	COC(=O)c1ccc(NS(=O)(=O)c2sc3ccc(F)cc3c2C)c(S(C)(=O)=O)c1 [4-(5-Fluoro-3-methyl-benzo[b]thiophene-2-sulfonylamino)-3-methanesulfonyl-benzoic acid methyl ester]
